Reference: patent US4661482A, “Use of pyrazolobenzoxazines in method of treating cerebral senescence and cerebral hypoxin” (Roussel Uclaf, priority 1985, dated 1987)

Key:
[1] = Test of hypobare anoxemia (antianoxic activity); format: in vivo, male mice; settings: head: orally, text: sub-cutaneously, 90 mm of Hg
Description: A--Test of hypobare anoxemia:
Male mice weighing 20-22 g, having fasted for 5 hours, were divided into groups of 10 animals and the test product was administered to the animals sub-cutaneously. Fifteen minutes after administration of the product, the animals were placed in a 2 liter dessicator in which the pressure was brought rapidly to 90 mm of Hg by a pump, and their time of survival was noted expressed in seconds. The increase of the survival time was recorded expressed as a percentage of the animals treated in relation to the control animals submitted to the same conditions.

[2] = Determination of hypotensive activity (carotidien arterial pressure, anesthetised rats); format: in vivo, male rats of WISTAR strain; settings: vs initial control pressure
Description: The hypotensive activity was studied on male rats of WISTAR strain weighing about 300 g and anesthetised with nembutal (50 mg/kg by intraperitoneal route). The test product was administered intravenously into the jugular vein and the carotidien arterial pressure was measured before and after administration of the product. The following table reports the variations expressed in percentages of the arterial pressure after administration of the product in relation to the initial control arterial pressure.

dopaminergic receptors [3] = assay: Rotation behavior after unilateral lesion of the nigra-striated bundle by 6-hydroxydopamine; format: in vivo, male rats; settings: intraperitoneal; rats, groups of 8; starting dose
Description: Male rats of 220 g were injured in the nigra-striated dopaminergic bundle according to Ungerstedt's method [Ungerstedt, Acta physiol. Scand. (1971) Vol. 82, suppl. 367.69-93], modified by unilateral injection of 9.2 μg of 6-hydroxydopamine hydrochloride in solution in 4 μl of physiological solution containing 0.5 mg/ml of ascorbic acid. […] It therefore caused an agonistic action on the dopaminergic receptors at the central level.

[4] = Determination of antihypertensive activity (spontaneously hypertensive rats); format: in vivo, spontaneously hypertensive male rats of the OKAMOTO strain; settings: 0.5 mg/kg orally; one hour after administration
Description: The anithypertensive activity was studied on spontaneously hypertensive male rats of the OKAMOTO strain aged 20 weeks and weighing 300 to 320 g. The product was administered orally 48 hours after the positioning of an intracarotidien catheter to measure the arterial pressure. The pressure was measured before and 1 hour after administration of the product. For the product of Example 3, at a dose of 0.5 mg/kg the variation in percentage of arterial pressure after administration of the product in relation to the initial control pressure was -15% one hour after administration.

Acute toxicity (LD0) = format: in vivo; settings: oral, mice
Description: The lethal dose LD0 of the product of Example 3 was evaluated after oral administration to mice. LD0 is the maximum dose not causing any mortality in 8 days.

dopaminergic receptors [5] = assay: Stereotype behavior; format: in vivo, male rats; settings: intraperitoneal; rats, groups of 5; observed every half hour over 5 hours; starting dose
Description: The tests were carried out on groups of 5 male rats weighing 150 to 180 g and each animal was placed individually in a barred cage (29×25×17 cm) containing a few wood shaving. The test product was administered intraperitoneally and the behavior of the animals was noted every half hour over 5 hours with the rating recommended by HALLIWELL et al. [Brit. J. Pharmacol. (1964), Vol. 23, p. 330-350]. The animal was asleep (0), it was awake but immobile (1), it turned in the cage (2), it sniffed the cover (3), it licked the walls (4), it touched the wood shavings or the bars of the cage with its teeth (5), it bit the shavings or the bars of the cage (6).
The total is determined of the scores per group taken at different times after administrationof the product studied.

cerebral neuronal cells = assay: enolase test (brain deprived of blood by ligature of the arteries); format: in vivo; settings: Rattus norvegicus, ip; intraperitoneal; rats; read-out: dose to which the releasing of enolase is diminished
Description: Suffering cerebral neuronal cells release enolase and the test was carried out on rats whose brain had been totally deprived of blood by ligature of the arteries supplying the brain. The product of Example 3 administered intraperitoneally diminished the releasing of enolase to a dose of 0.1 mg/kg. Therefore it was considered that it protected the cerebral cells against ischemia.

Row | Compound | Increase in survival time ([1]; 1 mg/kg) | % Variation of arterial pressure, 5 minutes after administration ([2]; 0.01 mg/kg intravenous) [%] | % Variation of arterial pressure, 30 minutes after administration ([2]; 0.01 mg/kg intravenous) [%] | % Variation of arterial pressure, 5 minutes after administration ([2]; 0.1 mg/kg intravenous) [%] | % Variation of arterial pressure, 30 minutes after administration ([2]; 0.1 mg/kg intravenous) [%] | Increase in survival time ([1]; 0.01 mg/kg) | Increase in survival time ([1]; 0.1 mg/kg) | dose from which rotations contra-lateral to the injured side are caused (dopaminergic receptors [3]) [mg/kg] | variation in percentage of arterial pressure in relation to the initial control pressure [4] [%] | LD0 (maximum dose not causing any mortality in 8 days) (Acute toxicity (LD0)) [mg/kg] | dose from which stereotype movements are caused (dopaminergic receptors [5]) [mg/kg] | minimal effective dose (cerebral neuronal cells) [mg/kg]
1 | 4a RS (4aα,7α,8aβ)-7-methylthiomethyl-2,4,4a,5,6,7,8a,9-octahydro-5-propylpyrazolo-[3,4-g]-1,4-benzoxazine hydrochloride [Example 4] | +32% | -5 | -5 | -21 | -17 |  |  |  |  |  |  | 
2 | CCCN1CCO[C@@H]2Cc3n[nH]cc3C[C@H]21 (relative stereo) [Example 3, [4a SR trans]-5-propyl-2,4,4a,5,6,7,8a,9-octahydro-pyrazolo-[4,3-g]-1,4-benzoxazine] |  | -19 | -8 | -26 | -21 | +37% | +90% | 0.05 | -15 | ≥ 200 | 0.1 | 0.1
